The values that follow are results of earlier work, collected in patent US8431154B2, “Oral dosage form containing a PDE 4 inhibitor as an active ingredient and polyvinylpyrrolidone as excipient” (Takeda GmbH, priority 2002, dated 2013).

For the data set the following is noted: as referred to for U.S. Pat. No. 5,286,494.

Turning to `COc1ccc(C2CNC(=O)C2)cc1OC1CCCC1` (stereo not shown) [Rolipram], the solubility result was “solubility is slight”.
